Measurements as given in patent publication US20240308985A1 (Psy Therapeutics, Inc., priority 2021, published 2024).

molecular target: Monoacylglycerol Lipase (MAGL) (Homo sapiens (Human), UniProt Q99685); experiment: MAGL inhibition potency (IC50) assay with 4NPA substrate; assay type: biochemical; conditions: Method 6: Reaction Biology MAGL enzyme, 6 nM; read-out: MAGL Potency (Detection Method)
Source text: The potency of certain compounds for inhibiting MAGL were obtained using the following assays. The monoacylglycerol lipase inhibitor screening assay kit from Cayman Chemical was used to measure the MAGL potency for the compounds in Table 6 and Table 7. Cayman's Monoacylglycerol Lipase Inhibitor Screening Assay provides a method for screening human MAGL inhibitors. MAGL hydrolyzes 4-nitrophenylacetate resulting in a yellow product, 4-nitrophenol, with an absorbance of 405-412 nm. MAGL Inhibition was measured by the following assay. Monoacylglycerol Lipase (MAGL) inhibition was measured using recombinant MAGL enzyme (aa 2-303 RBC, internal preparation) and the substrate 4-Nitrophenyl acetate (4NPA) (Sigma-Aldrich, N8130). Hydrolysis of the substrate in the presence of the enzyme was measured by absorbance at 405 nm. 10 μL of assay buffer (10 mM Tris pH 7.5, 1 mM EDTA, 0.9% DMSO) was added to a black 384-well non-binding plate with clear bottom (Greiner, 781906) for each reaction. […] DMSO control wells were included for reference. A 10.8 nM (1.8×) MAGL mix in assay buffer was prepared, with 25 μL added to each reaction well, for a final assay concentration of 6 nM. No enzyme wells received 25 μL of buffer. Plate was incubated at room temperature for 30 minutes. 35 mM solution of 4NPA in methanol was prepared daily. A 4.5×4NPA substrate solution was prepared in assay buffer and 10 μL was added to each reaction well, for a final assay concentration of 0.25 mM. Plate was spun for 1 minute at 1000 rpm before measuring absorbance using a CLARIOstar plate reader (BMG Labtech). A kinetic reading at 405 nm was done every minute for 30 minutes. Data was analyzed using the linear slope of the reaction progress curve and the average of the no-enzyme wells (background) was subtracted from the data. The background-subtracted slope data was converted to % activity using the average of wells with enzyme and DMSO vehicle. IC50s were calculated using GraphPad software (Sigmoidal dose response, variable slope equation). […] Table 8 provides potency measurements of MAGL inhibition measured using the Potency Assay of Example 22 above, with the following modifications described in Table C. [table]

Sequence of Monoacylglycerol Lipase (MAGL) (Q99685 2-303): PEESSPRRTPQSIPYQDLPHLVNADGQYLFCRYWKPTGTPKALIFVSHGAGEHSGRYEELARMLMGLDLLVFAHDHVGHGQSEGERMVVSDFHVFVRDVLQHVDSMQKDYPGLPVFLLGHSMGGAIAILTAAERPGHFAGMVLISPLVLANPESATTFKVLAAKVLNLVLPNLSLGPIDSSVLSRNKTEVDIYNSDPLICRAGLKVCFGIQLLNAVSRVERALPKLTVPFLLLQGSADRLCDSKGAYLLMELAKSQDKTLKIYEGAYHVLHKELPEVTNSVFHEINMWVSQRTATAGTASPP

Row | Compound | IC50 [nM]
1 | Cc1cc(F)c(C(=O)N2CC3(CC(n4ncc(C)c4-c4ccccc4C)C3)C2)cc1O [Compound 407] | 50 to 150
2 | Cc1cnn(C2CC3(C2)CN(C(=O)c2cc(O)ccc2F)C3)c1-c1ccccc1F [Compound 408, (2-fluoro-5-hydroxyphenyl){6-[5-(o-fluorophenyl)-4-methyl-1-pyrazolyl]-2-aza-2-spiro[3.3]heptyl}methanone] | 50 to 150

Other lines, results leading:

Row | IC50 [nM] | Compound
3 | 150 to 500 | O=C(c1cc(O)ccc1F)N1CC2(CC(n3ncc(C4CC4)c3-c3ccccc3Cl)C2)C1 [Compound 411, {6-[5-(o-chlorophenyl)-4-cyclopropyl-1-pyrazolyl]-2-aza-2-spiro[3.3]heptyl}(2-fluoro-5-hydroxyphenyl)methanone]
4 | 50 to 150 | Cc1cc(-c2cc(F)ccc2C)n(C2CC3(C2)CN(C(=O)c2cc(O)ccc2F)C3)n1 [Compound 415, (2-fluoro-5-hydroxyphenyl){6-[5-(5-fluoro-2-tolyl)-3-methyl-1-pyrazolyl]-2-aza-2-spiro[3.3]heptyl}methanone]
5 | < 50 | Cc1cn(C2CC3(C2)CN(C(=O)c2cc(O)ccc2F)C3)nc1-c1ccccc1F [Compound 417, (2-fluoro-5-hydroxyphenyl){6-[3-(o-fluorophenyl)-4-methyl-1-pyrazolyl]-2-aza-2-spiro[3.3]heptyl}methanone]
6 | 1000 to 5100 | Cc1ccccc1-c1c(C)cnn1C1CC2(C1)CN(C(=O)c1ccc(F)cc1OC1CC1)C2 [Compound 419, (2-cyclopropoxy-4-fluorophenyl){6-[4-methyl-5-(o-tolyl)-1-pyrazolyl]-2-aza-2-spiro[3.3]heptyl}methanone]
7 | 1000 to 5100 | Cc1cnn(C2CC3(C2)CN(C(=O)c2ccc(F)cc2OC2CC2)C3)c1-c1ccccc1C(F)(F)F [Compound 420, (2-cyclopropoxy-4-fluorophenyl)(6-{4-methyl-5-[o-(trifluoromethyl)phenyl]-1-pyrazolyl}-2-aza-2-spiro[3.3]heptyl)methanone]
8 | 1000 to 5100 | Cc1ccc(F)cc1-c1c(C)cnn1C1CC2(C1)CN(C(=O)c1ccc(F)cc1OC1CC1)C2 [Compound 422, (2-cyclopropoxy-4-fluorophenyl){6-[5-(5-fluoro-2-tolyl)-4-methyl-1-pyrazolyl]-2-aza-2-spiro[3.3]beptyl}methanone]
9 | 1000 to 5100 | Cc1cc(-c2cc(F)ccc2C)n(C2CC3(C2)CN(C(=O)c2ccc(F)cc2OC2CC2)C3)n1 [Compound 423, (2-cyclopropoxy-4-fluorophenyl){6-[5-(5-fluoro-2-tolyl)-3-methyl-1-pyrazolyl]-2-aza-2-spiro[3.3]heptyl}methanone]
10 | 150 to 500 | Cc1cn(C2CC3(C2)CN(C(=O)c2ccc(F)cc2OC2CC2)C3)nc1-c1ccccc1F [Compound 425, (2-cyclopropoxy-4-fluorophenyl){6-[3-(o-fluorophenyl)-4-methyl-1-pyrazolyl]-2-aza-2-spiro[3.3]heptyl}methanone]
11 | 150 to 500 | Cc1cc(-c2cc(F)ccc2C)n(C2CC3(C2)CN(C(=O)c2ccc(F)cc2OC(F)F)C3)n1 [Compound 428]
12 | 1000 to 5100 | COc1cc(F)ccc1C(=O)N1CC2(CC(n3nc(-c4cc(F)ccc4C)cc3C)C2)C1 [Compound 439, (4-fluoro-2-methoxyphenyl){6-[3-(5-fluoro-2-tolyl)-5-methyl-1-pyrazolyl]-2-aza-2-spiro[3.3]heptyl}methanone]

same assay, conditions: Method 6: Reaction Biology MAGL enzyme, 6 nM; read-out: Potency (MAGL inhibition)

Row | Compound | IC50 [nM]
13 | Cc1cnn(C2CC3(C2)CN(C(=O)c2cc(O)ccc2F)C3)c1-c1ccccc1Cl [Compound 404] | > 10000
14 | Cc1ccccc1-c1ccnn1C1CC2(C1)CN(C(=O)c1cc(O)ccc1F)C2 [Compound 405] | > 10000
15 | Cc1cc(-c2ccccc2C)n(C2CC3(C2)CN(C(=O)c2cc(O)ccc2F)C3)n1 [Compound 406] | > 10000

Results, then the compound that gave them:

Row | IC50 [nM] | Compound
16 | > 10000 | Cc1cn(C2CC3(C2)CN(C(=O)c2cc(O)ccc2F)C3)nc1-c1ccccc1Cl [Compound 416]
17 | > 10000 | O=C(c1ccc(F)cc1OC1CC1)N1CC2(CC(n3nc(C(F)(F)F)cc3-c3ccccc3C(F)(F)F)C2)C1 [Compound 424, (2-cyclopropoxy-4-fluorophenyl)(6-(3-(trifluoromethyl)-5-(2-(trifluoromethyl)phenyl)-1H-pyrazol-1-yl)-2-azaspiro[3.3]heptan-2-yl)methanone]

same assay, conditions: Method 11: Reaction Biology MAGL enzyme, 25 nM (name: Conc 20); read-out: MAGL Potency (Detection Method)

Row | IC50 [nM] | Compound
18 | 1000 to 5100 | Cc1ccc(F)cc1-c1cc(C)n(C2CC3(C2)CN(C(=O)c2ccc(F)cc2OCF)C3)n1 [Compound 437, (4-fluoro-2-fluoromethoxyphenyl){6-[3-(5-fluoro-2-tolyl)-5-methyl-1-pyrazolyl]-2-aza-2-spiro[3.3]heptyl}methanone]

same assay, conditions: Method 11: Reaction Biology MAGL enzyme, 25 nM (name: Conc 20); read-out: Potency (MAGL inhibition)

Row | IC50 [nM] | Compound
19 | > 10000 | Cc1cc(-c2cc(F)ccc2C)n(C2CC3(C2)CN(C(=O)c2ccc(F)cc2OC(F)(F)F)C3)n1 [Compound 427]

same assay, conditions: Method 14: Reaction Biology MAGL enzyme, 6 nM; read-out: MAGL Potency (Detection Method)

Row | IC50 [nM] | Compound
20 | 150 to 500 | Cc1cc(C2CC3(C2)CN(C(=O)c2ccc(F)cc2OC2CC2)C3)n(-c2ccccc2C)n1 [Compound 374, (2-cyclopropoxy-4-fluorophenyl) {6-[3-methyl-1-(o-tolyl)-5-pyrazolyl]-2-aza-2-spiro[3.3]heptyl}methanone]
21 | 50 to 150 | O=C(c1cc(O)ccc1F)N1CC2(CC(n3ncnc3-c3ccccc3Cl)C2)C1 [Compound 376, {6-[5-(o-chlorophenyl)-1H-1,2,4-triazol-1-yl]-2-aza-2-spiro[3.3]beptyl}(2-fluoro-5-hydroxyphenyl)methanone]
22 | 500 to 1000 | O=C(c1cc(O)ccc1F)N1CC2(CC(c3nnc(-c4ccccc4Cl)o3)C2)C1 [Compound 377, {6-[5-(o-chlorophenyl)-1,3,4-oxadiazol-2-yl]-2-aza-2-spiro[3.3]heptyl}(2-fluoro-5-hydroxyphenyl)methanone]
23 | 500 to 1000 | Cc1ccccc1-c1nnc(C2CC3(C2)CN(C(=O)c2cc(O)ccc2F)C3)o1 [Compound 378, (2-fluoro-5-hydroxyphenyl){6-[5-(o-tolyl)-1,3,4-oxadiazol-2-yl]-2-aza-2-spiro[3.3]heptyl}methanone]
24 | 1000 to 5100 | Cc1cc(F)ccc1-n1c(C)cnc1C1CC2(C1)CN(C(=O)c1cc(O)ccc1F)C2 [Compound 380, (2-fluoro-5-hydroxyphenyl){6-[1-(4-fluoro-2-tolyl)-5-methyl-2-imidazolyl]-2-aza-2-spiro[3.3]heptyl}methanone]
25 | 150 to 500 | Cc1ccccc1-c1ccn(C(=O)C2CC3(C2)CN(C(=O)c2cc(O)ccc2F)C3)n1 [Compound 381, {2-(2-fluoro-5-hydroxybenzoyl)-2-aza-6-spiro[3,3]heptyl}[3-(o-tolyl)-1-pyrazolyl]methanone]
26 | 500 to 1000 | O=C(c1cc(O)ccc1F)N1CC2(CC(c3nccn3-c3ccccc3)C2)C1 [Compound 401, (2-fluoro-5-hydroxyphenyl){6-(1-phenyl-2-imidazolyl)-2-aza-2-spiro[3.3]heptyl}methanone]

same assay, conditions: Method 14: Reaction Biology MAGL enzyme, 6 nM; read-out: Potency (MAGL inhibition)

Row | IC50 [nM] | Compound
27 | > 10000 | O=C(c1cc(O)ccc1F)N1CC2(CC(C(=O)N3CCOCC3)C2)C1 [Compound 384]
28 | > 10000 | O=C(c1cc(O)ccc1F)N1CC2(CC(C(=O)N3CCCC3)C2)C1 [Compound 388]
29 | > 10000 | O=C(c1cc(O)ccc1F)N1CC2(CC(C(=O)N3CCC4(COC4)C3)C2)C1 [Compound 391]
30 | > 10000 | O=C(NCC1COC1)C1CC2(C1)CN(C(=O)c1cc(O)ccc1F)C2 [Compound 395]
31 | > 10000 | O=C(c1cc(O)ccc1F)N1CC2(CC(C(=O)N3CCC4(CCCO4)C3)C2)C1 (stereo not drawn) [Compound 400]
32 | > 10000 | Cc1cc(C2CC3(C2)CN(C(=O)c2ccc4c(c2)OCC4)C3)n(-c2ccccc2C)n1 [Compound 402]
33 | > 10000 | Cc1cc(C2CC3(C2)CN(C(=O)c2cccc4c2CCO4)C3)n(-c2ccccc2C)n1 [Compound 403]
